In the supplement of paper PMC10307832:

Key:
Assay in all cases: relative viability (nuclei count vs DMSO), 5 days (fraction); higher = more cells survive
Neratinib + AZD7762 = compound: CCOc1cc2ncc(C#N)c(Nc3ccc(OCc4ccccn4)c(Cl)c3)c2cc1NC(=O)/C=C/CN(C)C [Neratinib] + NC(=O)Nc1cc(-c2cccc(F)c2)sc1C(=O)N[C@H]1CCCNC1 [AZD7762] (partner 0.2 µM)
Outline: (§1)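 Relative viability equals treated-well nuclei counts divided by vehicle-well nuclei counts. Counts came from 4× images of lung cancer cell lines grown in 1536-well plates for 5 days after pin-tool dosing on the day after seeding. Dosing used one drug alone or a fixed anchor-drug dose plus five library-drug doses (not always all listed) in √10 steps, and values are medians of duplicate plates.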

Neratinib + Luminespib = compound: CCOc1cc2ncc(C#N)c(Nc3ccc(OCc4ccccn4)c(Cl)c3)c2cc1NC(=O)/C=C/CN(C)C [Neratinib] + CCNC(=O)c1noc(-c2cc(C(C)C)c(O)cc2O)c1-c1ccc(CN2CCOCC2)cc1 [Luminespib] (partner 0.01 µM)
Outline: as §1

Neratinib + Tozasertib = compound: CCOc1cc2ncc(C#N)c(Nc3ccc(OCc4ccccn4)c(Cl)c3)c2cc1NC(=O)/C=C/CN(C)C [Neratinib] + Cc1cc(Nc2cc(N3CCN(C)CC3)nc(Sc3ccc(NC(=O)C4CC4)cc3)n2)n[nH]1 [Tozasertib] (partner 0.1 µM)
Outline: as §1

Neratinib + Foretinib = compound: CCOc1cc2ncc(C#N)c(Nc3ccc(OCc4ccccn4)c(Cl)c3)c2cc1NC(=O)/C=C/CN(C)C [Neratinib] + COc1cc2c(Oc3ccc(NC(=O)C4(C(=O)Nc5ccc(F)cc5)CC4)cc3F)ccnc2cc1OCCCN1CCOCC1 [Foretinib] (partner 0.25 µM)
Outline: as §1

Cell Line	relative viability (Neratinib + AZD7762; first compound 0.01 µM)	relative viability (Neratinib + AZD7762; first compound 0.03162 µM)	relative viability (Neratinib + AZD7762; first compound 0.1 µM)	relative viability (Neratinib + AZD7762; first compound 0.3162 µM)	relative viability (Neratinib + AZD7762; first compound 1 µM)	relative viability (Neratinib + Luminespib; first compound 0.01 µM)	relative viability (Neratinib + Luminespib; first compound 0.03162 µM)	relative viability (Neratinib + Luminespib; first compound 0.1 µM)	relative viability (Neratinib + Luminespib; first compound 0.3162 µM)	relative viability (Neratinib + Luminespib; first compound 1 µM)	relative viability (Neratinib + Tozasertib; first compound 0.01 µM)	relative viability (Neratinib + Tozasertib; first compound 0.03162 µM)	relative viability (Neratinib + Tozasertib; first compound 0.1 µM)	relative viability (Neratinib + Tozasertib; first compound 0.3162 µM)	relative viability (Neratinib + Tozasertib; first compound 1 µM)	relative viability (Neratinib + Foretinib; first compound 0.01 µM)	relative viability (Neratinib + Foretinib; first compound 0.03162 µM)	relative viability (Neratinib + Foretinib; first compound 0.1 µM)	relative viability (Neratinib + Foretinib; first compound 0.3162 µM)	relative viability (Neratinib + Foretinib; first compound 1 µM)
NCI-H1993	0.762	0.745	0.624	0.465	0.581	0.717	0.83	0.719	0.599	0.511	0.528	0.594	0.597	0.536	0.593	0.82	0.662	0.6	0.567	0.657
NCI-H2085	0.924	1.04	0.933	0.746	–	0.4	0.455	0.353	0.3	0.294	0.729	0.909	0.716	0.675	0.458	0.801	1.08	0.761	0.64	0.31
NCI-H2087	1.36	1.29	0.985	1.24	0.694	0.16	0.172	0.151	0.14	0.148	0.239	0.274	0.197	0.193	0.134	1.36	1.24	1.05	0.742	0.536
NCI-H2126	1.07	0.999	0.873	1	0.741	0.932	0.853	0.828	0.822	0.464	0.851	0.857	0.794	0.673	0.397	1.37	1.36	1.13	1.09	0.536
NCI-H2170	0.816	0.549	0.515	0.177	0.159	0.727	0.637	0.365	0.271	0.304	0.842	0.684	0.565	0.266	0.183	1.04	1.07	0.909	0.303	0.27
NCI-H2342	0.519	0.499	0.408	0.267	0.379	0.72	0.717	0.712	0.621	–	0.414	0.52	0.441	0.455	0.358	1.08	0.993	0.891	0.703	0.525
NCI-H2347	0.727	0.733	0.533	0.756	0.457	0.472	0.385	–	0.483	0.289	0.539	0.624	–	0.541	0.384	0.686	0.909	–	0.586	0.711
NCI-H2405	0.818	0.799	0.751	0.635	0.446	0.859	0.73	0.562	0.577	0.354	0.808	0.852	0.712	0.72	0.547	1.06	1.08	0.922	1.04	0.57
